The values that follow are results of earlier work, collected in PMC10957545, “Anti-diabetic and anti-inflammatory bioactive hits from Coriaria intermedia Matsum. stem and Dracontomelon dao (Blanco) Merr. & Rolfe bark through bioassay-guided fractionation and liquid chromatography-tandem mass spectrometry” (Frontiers in Pharmacology, 2024).

The structures appear in SMILES notation. Values after ≈ are worked out from the molar mass of the structure shown. Where two headings read alike, the source gives them in different places.

For one data set, the system named is sucrase. Details: method as in Kato et al., 2008. As to conditions: at a concentration of 400 µM; ref Kato et al., 2008.
In the next data set the test system is maltase. Details: method as in Kato et al., 2008. The conditions noted are these: at a concentration of 400 µM; ref Kato et al., 2008.
In data set [1] the test system is advanced glycation end products formation. Details: method as in Jung et al., 2012. As to conditions: ref Jung et al., 2012; read-out: inhibition of advanced glycation end products formation, IC50.
In the next data set the test system is α-amylase. Further details: method as in Kato et al., 2008. The conditions noted are these: at a concentration of 400 µM; ref Kato et al., 2008.
Data set [2] has as its system ovalbumin-induced asthmatic mice. Details: method as in Jin and Yi, 2023. As to conditions: via the AMP-activated protein kinase pathway; ref Jin and Yi, 2023.
Data set [3] has as its system mice fed with a high fat diet (HFD). Further details: method as in Liao et al., 2022. The conditions noted are these: ref Liao et al., 2022.
Data set [4] relates to streptozotocin-induced diabetic rats. Further details: method as in Nandini and Naik, 2019. As to conditions: treated orally, end of the study; ref Nandini and Naik, 2019.
The subject of data set [5] is proinflammatory cytokines and mediators; cyclooxygenase-2 expression. Further details: method as in Zhao et al., 2008, as cited in Li et al. (2018). As to conditions: ref Zhao et al., 2008, as cited in Li et al. (2018).
In data set [6] the test system is spike receptor binding domain (spike-RBD) of SARS-CoV-2 virus / human angiotensin-converting enzyme 2 (hACE2). Details: method as in Yang et al., 2021. The conditions noted are these: dose-dependent manner; ref Yang et al., 2021.
Data set [7] relates to different cancer cell lines. Details: method as in Li et al., 2018. The conditions noted are these: both in vitro and in vivo; ref Li et al., 2018.
In data set [8] the test system is lipopolysaccharide (LPS)-induced nitric oxide (NO), prostaglandin E2 (PGE2), and interleukin-6 (IL-6) production. Further details: method as in BenSaad et al., 2017. As to conditions: ref BenSaad et al., 2017.
The next data set has as its system colon inflammation. Details: method as in Guri et al., 2011. The conditions noted are these: abscisic acid intake; ref Guri et al., 2011.
The test system of the next data set is glucose uptake. Details: method as in Xu et al., 2018. As to conditions: ref Xu et al., 2018.
Another data set deals with beta pancreatic cells. Further details: method as in Xu et al., 2018. As to conditions: ref Xu et al., 2018.
The test system of another data set is neuroinflammation. Further details: method as in Jeon et al., 2020. As to conditions: abscisic acid intake; ref Jeon et al., 2020.
In data set [9] the test system is LPS-induced nuclear factor kappa B (NF-κB) activation. Further details: method as in Oh et al., 2010. As to conditions: ref Oh et al., 2010.
Data set [10] concerns p38, ERK, and PI 3-kinase/Akt and ROS accumulation. Details: method as in Moon et al., 2018. As to conditions: ref Moon et al., 2018.
Where [11] appears, read: isolated from Terminalia macroptera leaves, ref Pham et al., 2014.

In the case of `COc1cc2oc(=O)ccc2cc1O` [Compound 4, isoscopoletin], the “% inhibition of sucrase” value with sucrase is given as 20.9%. The “% inhibition of maltase” value in the data set on maltase was 32.2%. Besides, the IC50 on 15-lipoxygenase-1 (LOX) (ref Deng et al., 2007) was 15.1 µM; in data set [1], 18.8 ± 0.5 µM. Besides, the “IC50 LOX” value on 15-lipoxygenase-1 (LOX) (µM value given in µg/mL, ref Deng et al., 2007) was 2.902 [Deng et al. (2007)] µg/mL. Besides, in the data set on α-amylase, the “% inhibition of α-amylase” value is reported as 0.2%.
`Oc1cccc(O)c1O` [Compound 14, pyrogallol]: the “IC50 LOX” value on 15-lipoxygenase-1 (LOX) (mM value given in µg/mL, ref Yasumoto et al. (1970)) is 1.097 × 10^3 [Yasumoto et al. (1970)] µg/mL. Besides, at 15-lipoxygenase-1 (LOX) (ref Yasumoto, Yamamoto, and Mitsuda, 1970), the IC50 is 8700 µM.
On to `O=C(O[C@@H]1O[C@@H]2COC(=O)c3cc(O)c(O)c(O)c3-c3c(cc(O)c(O)c3O)C(=O)O[C@H]([C@H]1O)[C@@H]2O)c1cc(O)c(O)c(O)c1` [Compound 2, corilagin], for which the “airway inflammation and collagen deposition” value in data set [2] is listed as “reduce”. Also, the “glucose intolerance and insulin resistance” value in [3] (HFD-fed mice) is recorded as “improve”. Also, the plasma lipid concentrations entry in [3] (HFD-fed mice) is reported as “improved”. Besides, in data set [3], the “HFD-induced accumulation of fat in the liver and liver injury” value is recorded as “reduce”. Also, the “fasting blood glucose levels compared to diabetic control rats” value in data set [4] was “reduced”. In addition, the “effect on cyclooxygenase-2 expression” value in data set [5] (protein and gene level) is listed as “reduce”. Moreover, in data set [5], the “effect on production of proinflammatory cytokines and mediators” value is reported as “significantly reduce”. For the same compound, in data set [6], the “binding of spike-RBD to hACE2” value is “inhibit”. The “toxic effects on normal cells or tissues” value in the data set on normal cells or tissues is given as “almost no toxic effects”. In addition, the IC50 at α-glucosidase (AGLUC) (setting [11]) was 2.58 ± 0.08 µM; on 15-lipoxygenase-1 (LOX) (setting [11]), 41 ± 4 µM. Besides, the antitumor activities result in [7] is recorded as “exhibit antitumor activities”. Besides, the “IC50 LOX” value at 15-lipoxygenase-1 (LOX) (µM value given in µg/mL, ref Pham et al., 2014) was 26.01 ± 2.5 [Pham et al. (2014)] µg/mL.
Take `O=c1oc2c(O)c(O)cc3c(=O)oc4c(O)c(O)cc1c4c23` [Compound 1, ellagic acid]: the “effect on LPS-induced NO, PGE2 and IL-6 production” value in data set [8] was “inhibition”. The “IC50 AGLUC” value at α-glucosidase (AGLUC) (previously reported, ref You et al., 2012) was 2.18 [You et al. (2012)] µg/mL.
Consider `O=c1c(O[C@@H]2O[C@H](CO)[C@H](O)[C@H](O)[C@H]2O)c(-c2ccc(O)c(O)c2)oc2cc(O)cc(O)c12` [hyperin, reference compound], for which the “IC50 AGLUC” value on α-glucosidase (AGLUC) (ref Zhang et al., 2013) is listed as 19.26 µg/mL (≈ 41.5 µM).
With `CC1=CC(=O)CC(C)(C)[C@@]1(O)/C=C/C(C)=C\C(=O)O` [Compound 9, abscisic acid], the “effect on colon inflammation” value in the data set on colon inflammation was “reduces”. In addition, the “effect on glucose uptake in vitro” value in the data set with glucose uptake is recorded as “regulates”. In addition, the “effect on insulin production in beta pancreatic cells” value in the data set with beta pancreatic cells was “can stimulate”. Moreover, the effect on neuroinflammation result with neuroinflammation is given as “reduces”.
`CCCCCCCC/C=C\CCCCCCCC(N)=O` [Compound 6, oleamide]: the “effect on LPS-induced NF-κB activation” value in data set [9] is “inhibition”. For the same compound, in data set [10], the “effect on p38, ERK, and PI 3-kinase/Akt and ROS accumulation” value is “suppression”. Moreover, the “IC50 AGLUC” value at α-glucosidase (AGLUC) (ref Fang et al., 2022) was 30.69 ± 1.47 [Fang et al. (2022)] µg/mL.

One may read the IC50 as the concentration needed to halve the response being measured.
